Results: patent EP0462831B1, “Bicyclic pyran derivatives and their use as inhibitors of 5-lipoxygenase” (ZENECA LIMITED, priority 1990, dated 1991)

Tests used:
5-LO [1] = target: T1, 5-LO (Homo sapiens, UniProt P09917); assay: Test b): heparinised human blood challenged with calcium ionophore A23187, radioimmunoassay of LTB₄; type: cell-based; details: A23187 challenge, read-out: IC₅₀ (LTB₄)
T1 construct: incubating a test compound with heparinised human blood, prior to challenge with the calcium ionophore A23187; endogenous in cells; host or cells: blood cells in heparinised human whole blood
T1 sequence (P09917 1-674): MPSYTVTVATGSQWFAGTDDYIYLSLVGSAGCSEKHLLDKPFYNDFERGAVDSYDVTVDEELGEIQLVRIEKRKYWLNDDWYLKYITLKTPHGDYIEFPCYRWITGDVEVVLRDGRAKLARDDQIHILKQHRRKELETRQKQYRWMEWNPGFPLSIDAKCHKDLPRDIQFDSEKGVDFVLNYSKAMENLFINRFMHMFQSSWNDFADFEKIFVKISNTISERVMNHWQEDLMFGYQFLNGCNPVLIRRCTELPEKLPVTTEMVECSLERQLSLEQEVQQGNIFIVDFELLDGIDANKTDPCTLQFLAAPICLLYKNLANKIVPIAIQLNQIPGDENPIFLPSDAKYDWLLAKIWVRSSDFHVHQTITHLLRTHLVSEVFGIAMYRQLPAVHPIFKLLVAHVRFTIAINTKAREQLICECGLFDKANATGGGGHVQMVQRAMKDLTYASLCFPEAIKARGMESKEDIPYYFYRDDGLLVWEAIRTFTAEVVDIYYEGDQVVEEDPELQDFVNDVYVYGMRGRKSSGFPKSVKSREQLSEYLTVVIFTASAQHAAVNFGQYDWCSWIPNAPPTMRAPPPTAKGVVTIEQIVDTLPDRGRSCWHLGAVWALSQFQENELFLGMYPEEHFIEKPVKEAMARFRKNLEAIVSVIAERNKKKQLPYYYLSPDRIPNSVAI
Experimental: As stated previously, the novel compounds of the formula I are inhibitors of the enzyme 5-LO. […] This test provides a measure of the intrinsic inhibitory properties of a test compound against soluble 5-LO in an extracellular environment. • b) An in vitro assay system involving incubating a test compound with heparinised human blood, prior to challenge with the calcium ionophore A23187 and then indirectly measuring the inhibitory effects on 5-LO by assaying the amount of LTB₄ using specific radioimmunoassays described by Carey and Forder (F. Carey and R.A. Forder, Prostaglandins, Leukotrienes Med., 1986, 22, 57; Prostaglandins, 1984, 28, 666; Brit. J. Pharmacol. 1985, 84, 34P) which involve the use of a protein-LTB₄ conjugate produced using the procedure of Young et alia (Prostaglandins, 1983, 26(4), 605-613). The effects of a test compound on the enzyme cyclooxygenase (which is involved in the alternative metabolic pathway for arachidonic acid and gives rise to prostaglandins, thromboxanes and related metabolites) may be measured at the same time using the specific radioimmunoassay for thromboxane B₂(TxB₂) described by Carey and Forder (see above). This test provides an indication of the effects of a test compound against 5-LO and also cyclooxygenase in the presence of blood cells and proteins. […]

5-LO [2] = target: T2, 5-LO (Rattus norvegicus, UniProt P12527); assay: Test g): zymosan-induced liberation of LTB₄ in a subcutaneous air pouch; type: in vivo, rats; details: oral, 3 hours, read-out: oral ED₅₀(LTB₄)
T2 construct: liberation of LTB₄ induced by zymosan within an air pouch generated within the subcutaneous tissue of the back of male rats; from tissue; host or cells: subcutaneous air pouch of male rats (in vivo)
T2 sequence (P12527 1-673): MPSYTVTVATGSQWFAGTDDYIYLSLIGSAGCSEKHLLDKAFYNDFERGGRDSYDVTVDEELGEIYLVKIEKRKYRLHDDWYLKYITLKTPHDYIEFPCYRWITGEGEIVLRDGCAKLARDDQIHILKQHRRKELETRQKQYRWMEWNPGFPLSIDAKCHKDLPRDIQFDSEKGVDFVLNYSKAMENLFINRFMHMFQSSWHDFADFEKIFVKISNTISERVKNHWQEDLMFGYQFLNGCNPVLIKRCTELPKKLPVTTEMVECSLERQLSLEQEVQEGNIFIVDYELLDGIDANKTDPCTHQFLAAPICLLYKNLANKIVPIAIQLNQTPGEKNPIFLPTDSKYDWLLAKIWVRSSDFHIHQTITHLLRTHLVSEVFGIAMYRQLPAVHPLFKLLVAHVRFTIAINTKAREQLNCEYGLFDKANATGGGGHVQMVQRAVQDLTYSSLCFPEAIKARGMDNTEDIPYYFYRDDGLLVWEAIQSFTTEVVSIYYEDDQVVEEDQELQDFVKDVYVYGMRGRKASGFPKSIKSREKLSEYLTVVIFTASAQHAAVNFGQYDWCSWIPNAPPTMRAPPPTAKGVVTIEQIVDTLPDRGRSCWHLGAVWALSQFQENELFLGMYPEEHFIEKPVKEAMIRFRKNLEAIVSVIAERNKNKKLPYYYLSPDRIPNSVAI

IC50 (5-LO [1]): 50 nM | ED50 (5-LO [2]): < 2 mg/kg
Structure (SMILES): COC1(c2cccc(Sc3ccc4c(c3)n(C)c(=O)n4C)c2)CCOCC1 [Example 1, 4-[3-(1,3-dimethyl-2-oxo-2,3-dihydrobenzimidazol-5-ylthio)phenyl]-4-methoxy-tetrahydropyran]
